According to US10995359B2, “Method for determining drug-sensitive human cell lines by analysis method in which measurement of activity of two types of protein kinase is used” (NITTO BOSEKI CO., LTD., priority 2015, dated 2021):

Tests used:
Assay in all cases: Drug sensitivity assay (cell growth test), sulforhodamine B
Format in all cases: cell-based
[1] = system: HCC1395 (LAR) cells; conditions: Homo sapiens, 72 hours, read-out: inhibition rate (%) by trametinib, classification by grid analysis
Description: (§1) Cultured cells were treated with a MEK inhibitor and a PI3K inhibitor in various concentrations, and cell lines sensitive to MEK and PI3K were classified by calculating a cell growth inhibition rate. The culture method and analysis method are as follows.
(§2) Thirteen types of cells used in the present study, HCC38 (BL1), MDA-MB-231 (MSL), DU4475 (IM), HCC1187 (IM), HCC1143 (BL1), HCC1395 (LAR), HCC1937 (BL1), MDA-MB-453 (LAR), HCC70 (BL2), HS578T (MSL), MDA-MB-157 (MSL) and MDA-MB-468 (BL1), were obtained from American type culture collection (ATCC), and SUM185PE (LAR) was obtained from ASTERAND BIOSCIENCE. All the cells belong to triple negative breast cancer (TNBC), and it is known which of six types (BL1, BL2, M, MSL, IM and LAR) these belong to by an existing classification method.
(§3) All the cells were cultured in a medium designated from a source of supply, and 2 mM L-glutamine and 10% fetal bovine serum (FBS) were supplemented.
(§4) Each type of cells was seeded in a 96 well titer plate at 1×10^4 cells/well, and trametinib, an MEK inhibitor (Medchem Express; 0.08, 0.16, 0.31, 0.63, 1.25, 2.5, 5, 10 and 20 μM), and wortmannin, a PI3K inhibitor (Wako Pure Chemical Industries, Ltd.; 0.08, 0.16, 0.31, 0.63, 1.25, 2.5, 5, 10 and 20 μM) were dissolved in Dimethyl Sulfoxide [DMSO] (Wako Pure Chemical Industries, Ltd.) in various concentrations and treated. In addition, the effect on cell growth was examined at 72 hours after the inhibitor by sulforhodamine B assay (manufactured by SIGMA-ALDRICH), and 50 μL of sulforhodamine B solution was added to each well and cells were left at room temperature for an hour for staining. The staining degree of metabolically survival cells was examined by monitoring absorbance at a wavelength of 565 nm using a microtiter plate. The absorbance of cells which were not treated with trametinib and wortmannin (treated with DMSO) was used as a control and defined as 100% to calculate a cell growth inhibition rate.
(§5) The cell lines were classified into 4 types, cell lines sensitive to wortmannin (hereinafter, PA), cell lines sensitive to trametinib (hereinafter, MA), cell lines resistant to wortmannin and trametinib (hereinafter, R), and others (hereinafter, S). In the classification, first the inhibition rate of each drug was calculated in a concentration of 1 μM, and the inhibition rate (%) by trametinib and the inhibition rate (%) by wortmannin were plotted on the X axis and Y axis respectively on a graph.
as §5, with “100 nM,” for “1 μM,”
as §5, with “10” for “1”, “graph. Using a 50% growth inhibition rate as an index of the inhibitive effect of a drug, cells were classified into 4 types by grid analysis.” for “graph.”

[2] = system: HCC1937 (BL1) cells; conditions: Homo sapiens, 72 hours, read-out: inhibition rate (%) by trametinib, classification by grid analysis
Description: as §1, §2, §3, §4, §5
as §5, with “100 nM,” for “1 μM,”
as §5, with “10” for “1”, “graph. Using a 50% growth inhibition rate as an index of the inhibitive effect of a drug, cells were classified into 4 types by grid analysis.” for “graph.”

[3] = system: HCC38 (BL1) cells; conditions: Homo sapiens, 72 hours, read-out: inhibition rate (%) by trametinib, classification by grid analysis
Description: as §1, §2, §3, §4, §5
as §5, with “100 nM,” for “1 μM,”
as §5, with “10” for “1”, “graph. Using a 50% growth inhibition rate as an index of the inhibitive effect of a drug, cells were classified into 4 types by grid analysis.” for “graph.”

[4] = system: HCC70 (BL2) cells; conditions: Homo sapiens, 72 hours, read-out: inhibition rate (%) by trametinib, classification by grid analysis
Description: as §1, §2, §3, §4, §5
as §5, with “100 nM,” for “1 μM,”
as §5, with “10” for “1”, “graph. Using a 50% growth inhibition rate as an index of the inhibitive effect of a drug, cells were classified into 4 types by grid analysis.” for “graph.”

[5] = system: HS578T (MSL) cells; conditions: Homo sapiens, Hs-578T, 72 hours, read-out: inhibition rate (%) by trametinib, classification by grid analysis
Description: as §1, §2, §3, §4, §5
as §5, with “100 nM,” for “1 μM,”
as §5, with “10” for “1”, “graph. Using a 50% growth inhibition rate as an index of the inhibitive effect of a drug, cells were classified into 4 types by grid analysis.” for “graph.”

[6] = system: MDA-MB-157 (MSL) cells; conditions: Homo sapiens, 72 hours, read-out: inhibition rate (%) by trametinib, classification by grid analysis
Description: as §1, §2, §3, §4, §5
as §5, with “100 nM,” for “1 μM,”
as §5, with “10” for “1”, “graph. Using a 50% growth inhibition rate as an index of the inhibitive effect of a drug, cells were classified into 4 types by grid analysis.” for “graph.”

[7] = system: MDA-MB-231 (MSL) cells; conditions: Homo sapiens, 72 hours, read-out: inhibition rate (%) by trametinib, classification by grid analysis
Description: as §1, §2, §3, §4, §5
as §5, with “100 nM,” for “1 μM,”
as §5, with “10” for “1”, “graph. Using a 50% growth inhibition rate as an index of the inhibitive effect of a drug, cells were classified into 4 types by grid analysis.” for “graph.”

[8] = system: MDA-MB-468 (BL1) cells; conditions: Homo sapiens, 72 hours, read-out: inhibition rate (%) by trametinib, classification by grid analysis
Description: as §1, §2, §3, §4, §5
as §5, with “100 nM,” for “1 μM,”
as §5, with “10” for “1”, “graph. Using a 50% growth inhibition rate as an index of the inhibitive effect of a drug, cells were classified into 4 types by grid analysis.” for “graph.”

[9] = system: SUM185PE (LAR) cells; conditions: Homo sapiens, 72 hours, read-out: inhibition rate (%) by trametinib, classification by grid analysis
Description: as §1, §2, §3, §4, §5
as §5, with “100 nM,” for “1 μM,”
as §5, with “10” for “1”, “graph. Using a 50% growth inhibition rate as an index of the inhibitive effect of a drug, cells were classified into 4 types by grid analysis.” for “graph.”

[10] = 100 nM, index 12.5% growth inhibition rate
[11] = 1 μM, index 25% growth inhibition rate
[12] = 10 μM, index 50% growth inhibition rate

**Q.** For `CC(=O)Nc1cccc(-n2c(=O)n(C3CC3)c(=O)c3c(Nc4ccc(I)cc4F)n(C)c(=O)c(C)c32)c1` [trametinib], which inhibition at 0.1 µM ([1]; HCC1395, 100 nM, index 12.5% growth inhibition rate) is on record?
**A.** The inhibition at 0.1 µM was less than 12.5%.

**Q.** What about the inhibition at 1 µM ([1]; HCC1395, 1 μM, index 25% growth inhibition rate) of the same molecule?
**A.** Its inhibition at 1 µM is less than 25%.

**Q.** And the inhibition at 10 µM ([1]; HCC1395, 10 μM, index 50% growth inhibition rate)?
**A.** The inhibition at 10 µM was less than 50%.

**Q.** What about the inhibition at 0.1 µM ([2]; HCC1937, 100 nM, index 12.5% growth inhibition rate) of the same molecule?
**A.** Its inhibition at 0.1 µM is less than 12.5%.

**Q.** What about the inhibition at 1 µM ([2]; HCC1937, 1 μM, index 25% growth inhibition rate) of the same molecule?
**A.** The inhibition at 1 µM was less than 25%.

**Q.** What about the inhibition at 10 µM ([2]; HCC1937, 10 μM, index 50% growth inhibition rate) of the same molecule?
**A.** The inhibition at 10 µM was less than 50%.

**Q.** What about the inhibition at 0.1 µM ([3]; HCC38, 100 nM, index 12.5% growth inhibition rate) of the same molecule?
**A.** The inhibition at 0.1 µM was greater than 12.5%.

**Q.** And the inhibition at 1 µM ([3]; HCC38, 1 μM, index 25% growth inhibition rate)?
**A.** Its inhibition at 1 µM is greater than 25%.

**Q.** What about the inhibition at 10 µM ([3]; HCC38, 10 μM, index 50% growth inhibition rate) of the same molecule?
**A.** Its inhibition at 10 µM is greater than 50%.

**Q.** And the inhibition at 0.1 µM ([4]; HCC70, 100 nM, index 12.5% growth inhibition rate)?
**A.** Its inhibition at 0.1 µM is greater than 12.5%.

**Q.** And the inhibition at 1 µM ([4]; HCC70, 1 μM, index 25% growth inhibition rate)?
**A.** The inhibition at 1 µM was greater than 25%.

**Q.** What about the inhibition at 10 µM ([4]; HCC70, 10 μM, index 50% growth inhibition rate) of the same molecule?
**A.** Its inhibition at 10 µM is greater than 50%.

**Q.** What about the inhibition at 0.1 µM [5, 10] of the same molecule?
**A.** The inhibition at 0.1 µM was less than 12.5%.

**Q.** And the inhibition at 1 µM [5, 11]?
**A.** The inhibition at 1 µM was less than 25%.

**Q.** And the inhibition at 10 µM [5, 12]?
**A.** The inhibition at 10 µM was less than 50%.

**Q.** What about the inhibition at 0.1 µM ([6]; MDA-MB-157, 100 nM, index 12.5% growth inhibition rate) of the same molecule?
**A.** The inhibition at 0.1 µM was less than 12.5%.

**Q.** What about the inhibition at 1 µM ([6]; MDA-MB-157, 1 μM, index 25% growth inhibition rate) of the same molecule?
**A.** The inhibition at 1 µM was less than 25%.

**Q.** What about the inhibition at 10 µM ([6]; MDA-MB-157, 10 μM, index 50% growth inhibition rate) of the same molecule?
**A.** Its inhibition at 10 µM is less than 50%.

**Q.** And the inhibition at 0.1 µM ([7]; MDA-MB-231, 100 nM, index 12.5% growth inhibition rate)?
**A.** The inhibition at 0.1 µM was greater than 12.5%.

**Q.** What about the inhibition at 1 µM ([7]; MDA-MB-231, 1 μM, index 25% growth inhibition rate) of the same molecule?
**A.** Its inhibition at 1 µM is greater than 25%.

**Q.** What about the inhibition at 10 µM ([7]; MDA-MB-231, 10 μM, index 50% growth inhibition rate) of the same molecule?
**A.** Its inhibition at 10 µM is greater than 50%.

**Q.** What about the inhibition at 0.1 µM ([8]; MDA-MB-468, 100 nM, index 12.5% growth inhibition rate) of the same molecule?
**A.** The inhibition at 0.1 µM was less than 12.5%.

**Q.** And the inhibition at 1 µM ([8]; MDA-MB-468, 1 μM, index 25% growth inhibition rate)?
**A.** The inhibition at 1 µM was less than 25%.

**Q.** And the inhibition at 10 µM ([8]; MDA-MB-468, 10 μM, index 50% growth inhibition rate)?
**A.** The inhibition at 10 µM was less than 50%.

**Q.** What about the inhibition at 0.1 µM [9, 10] of the same molecule?
**A.** Its inhibition at 0.1 µM is less than 12.5%.

**Q.** What about the inhibition at 1 µM [9, 11] of the same molecule?
**A.** The inhibition at 1 µM was less than 25%.

**Q.** What about the inhibition at 10 µM [9, 12] of the same molecule?
**A.** Its inhibition at 10 µM is less than 50%.
